Source: patent US20230121771A1, “A PHARMACEUTICAL COMBINATION OF AN ARTEMISININ COMPOUND, 5-AMINOLEVULINIC ACID OR METHYL-5-AMINOLEVULINIC ACID AND A CHEMOTHERAPEUTIC AGENT” (JLP Health GmbH, priority 2020, published 2023)

Columns and labels:
[1] = tested on: human glioblastoma-like neoplastic organoid model; experiment: Compound profiling in human glioblastoma-like neoplastic organoid model (p53, NF1, PTEN mutated); type: cell-based; details: compound alone
Protocol: Tumor initiation was induced by either oncogene amplification, using a Sleeping Beauty (SB) transposase, or mutation of tumor suppressor genes, using the CRISPR-Cas9 system in day 10 old embryoid bodies (EBs). Plasmids carrying the transposase as well as GFP and the desired oncogenes or expressing Cas9 nuclease were introduced by electroporation. In brief, a mixture of 1 μg DNA and 100 μl nucleofector solution was added to 10 EBs and transferred to a nucleofection cuvette. The Lonza Nucleofector 2b and the A-023 program were used for electroporation/ nucleofection. […] Cerebral tumor organoids were treated with different compounds and the survival and growth of transformed as well as untransformed neurons was monitored. Fluorescence labeling of tumor cells allowed clear distinguishability of transformed cells as compared to non-labeled throughout the experiment using brightfield microscopy, as well as fluorescence imaging. The transformed tumor tissue and untransformed neurons within the same organoid was monitored using fluorescence imaging, as well as brightfield microscopy throughout the experiment. At the endpoint of the treatment (d5 or d7 respectively), the number of GFP-positive cells was assessed by flow cytometry. […] Brightfield and green fluorescence images were taken from the same area. […]

[2] = tested on: human primary glioblastoma cell lines; experiment: Survival of artemisinin treated primary human glioblastoma cells upon 5-ALA (CellTiter-Glo, 72 h); type: cell-based; details: three independently derived human primary glioblastoma cell lines
Protocol: […] Cell viability was assessed using automated cell counting (high-throughput flow cytometry), Alamar Blue staining (Invitrogen, DAL1100) or CellTiter-Glo Luminescent Assay (Promega, G7570, according to the manufacturer’s protocol) respectively.

[3] = tested on: neuroblastoma cells (SHSY5Y), Jurkat cells; experiment: Cell survival by automated cell counting in SHSY5Y and Jurkat cells; type: cell-based; details: artemisinin 0.5 µM, 5-ALA 0.25 mM
Protocol: For dosage responses, cells were seeded in 96-wells (25.000/ 96-well, in triplicate -where indicated) and subjected to compounds for 48 h. Cell viability was assessed using automated cell counting (high-throughput flow cytometry), Alamar Blue staining (Invitrogen, DAL1100) or CellTiter-Glo Luminescent Assay (Promega, G7570, according to the manufacturer’s protocol) respectively.

[4] = tested on: Myc overexpressing tumor organoids; experiment: ROS/DHE staining of dissociated CNS-PNET tumor organoids; type: cell-based, human; details: especially in GFP-positive cancer cells
Protocol: Treated cells were collected, washed with 1x HBSS (without Ca2+ and Mg2+), incubated with 1mM DHE (Dihydroethidium (Hydroethidine), Invitrogen, D11347) in 1x HBSS for 45 min at 37° C., washed twice and counterstained with DAPI or a viability dye (eBioscience™ Fixable Viability Dye eFluor™ 780, 65-0865-18) for 10 min on ice. Cells were then collected, strained and analysed using flow cytometry for DHE in the red fluorescent spectrum (PE channel).
Cerebral (tumor) organoids were enzymatically and mechanically dissociated using 1x trypsin, 35-45 min incubation at 37° C., and gentle shaking. Organoids were singularised by careful resuspension, addition of differentiation medium and straining (Falcon Round-Bottom Tubes with Cell Strainer Cap, 5 mL, 35 µm nylon mesh cell strainer snap cap). Single cells in suspension were counterstained with DAPI or a viability dye (eBioscience™ Fixable Viability Dye eFluor™ 780, 65-0865-18), and analysed using flow cytometry (BD LSRFortessa HTS Cell Analyzer). The amounts of GFP-positive cells were analyzed.

glioblastoma cell lines = experiment: 6-day cell survival assay (Cell Titer Glo 2.0), glioblastoma cell lines; type: cell-based; details: 6-day treatment
Protocol: Cell survival assays (FIGS. 12-19) were performed in 96-well plates in technical duplicates. Treatments started 24 hours post cell plating and lasted for 6-days prior to cell viability assessment with the Cell Titer Glo 2.0 Luminescent assay (Promega, G9242).

Q: Which “survival of untransformed and transformed cells” value [1] does the source give for `NCC(=O)CCC(=O)O` [5-ALA, 5-amino-4-oxopentanoic acid] here?
A: little effect on the survival of untransformed cells as well as transformed cells

Q: What about the “sensitivity to artemisinin cytotoxicity upon 5-ALA” value [2] of the same molecule?
A: induced artemisinin hypersensitivity to artemisinin cytotoxicity

Q: And the “cell viability / cell death” value [3]?
A: slightly reduced cell viability

Q: And the “ROS levels (DHE staining, FACS)” value [4]?
A: slightly induced ROS production

Q: What about the “cell survival compared to untreated controls” value (glioblastoma cell lines) of the same molecule?
A: more potent than Methyl-5-ALA
